According to US20180353518A1, “OPHTHALMIC SOLUTIONS” (Santen Pharmaceutical Co., LTD., priority 2000, published 2018):

Assay: Solubility Test with polysorbate 80 in water
Type: physicochemical
Settings: room temperature and 40° C.
Method: In order to formulate a drug which is hardly soluble in water in an ophthalmic solution, it is necessary to devise to dissolve the drug in water. Since the nonionic surfactant acts as the solubilizing agent, the following solubility tests were performed in order to make sure of its required amount.
Test method: The present compound having a concentration exceeding solubility and polysorbate 80 were added to 10 ml of water, the mixtures were stirred at 5° C., room temperature and 40° C. for 24 hours respectively and then centrifuged at 20,000 rpm, and concentrations of the present compound contained in the supernatants were measured by the HPLC method. […] The “%” in the FIGURE is % by weight.

CC(C)OC(=O)CCC/C=C\C[C@@H]1[C@@H](/C=C/C(F)(F)COc2ccccc2)[C@H](O)C[C@@H]1O [the present compound, 16-Phenoxy-15-deoxy-15,15-difluoro-17,18,19,20-tetranorprostaglandin F2α isopropyl ester]
Water-solubility of the present compound versus temperature (5° C., with polysorbate 80 (FIG. 1)): at low temperatures is higher than that at high temperatures | solubility of the present compound versus amount of polysorbate 80 (water, stirred 24 hours at 5° C., supernatant by HPLC (FIG. 1)): increases depending on amounts of polysorbate 80
